# Laboratory results from patent US5786385A, “Polyacetylenes” (priority 1993, dated 1998).
# Where two headings read alike, the source gives them in different places.
# Columns and labels:
# [1] = for stability to air and light: exposure to light and air / oxygen
# [2] = tested on: isolated rat phrenic nerve-diaphragm preparation; assay: Isolated rat phrenic nerve-diaphragm preparation
# Source text: This is not reversed by neostigmine, i.e. is not curare-like.
# central nervous system = assay: Central nervous system stimulant / convulsant activity compared with picrotoxin; antagonism by anticonvulsants; assay type: in vivo; details: for antagonism of cunaniol convulsant action: prior exposure to anticonvulsant
# Source text: (§1) Cunaniol is about ten times as active and ten times as rapid as the classic central nervous system stimulant picrotoxin. Convulsant action can be antagonised by prior exposure to anticonvulsants such as phenobarbitone or troxidone.
# mice = assay: Convulsant action in mice, intraperitoneal or oral; assay type: in vivo, mouse; details: for convulsant type in mice: intraperitoneally or orally; for similarity of convulsant actions to cunaniol: mice
# [3] = Craig Distribution studies (Kp value); assay type: physicochemical; details: obtained previously from Craig Distribution studies
# Protocol: Crude syrup (190 g.) from the cold petrol extraction was dissolved in upper phase solvent (150 mls.). A steady state distribution program was used, based on a Kp value for cunaniol acetate of 0.54 obtained previously from Craig Distribution studies. The mixture was then loaded into the SSDM dosage pump.
# [4] = tested on: pentobarbitone sodium induced sleep; assay: Pentobarbitone sodium induced sleep in rats (sleeping time), analeptic action; assay type: in vivo, rat; details: for ED50: after intraperitoneal 40 mg/kg pentobarbitone sodium, read-out: dose reducing "sleeping time" by 50%
# Protocol: The effects of cunaniol on pentobarbitone sodium induced sleep in rats were compared with those of the analeptic bemegride. 5 mg/kg of cunaniol administered by intraperitoneal injection antagonises pentobarbitone while 7.4 mg/kg reduces "sleeping time" by 50% after intraperitoneal administration of a concentration of 40 mg/kg pentobarbitone sodium.
# [5] = Potency of cis-cunaniol relative to the trans form; details: cis form versus trans form; only about 1/60th
# [6] = Solubility / lipophilicity; assay type: physicochemical
# isolated rabbit heart = assay: Isolated rabbit heart perfusion
# guppies = assay: Toxicity test on guppies; assay type: in vivo, guppy
# Source text: Cunaniol or its derivatives may also be used as an effective toxin. When tested on guppies at approximately 10^-6 M the poison gives rise to restless movement after two minutes, wild swimming, convulsion and coma with the body bent laterally after ten minutes.
# rat heart = assay: Rat heart contractability and heart block
# GABAergic system = assay: GABA (gamma-amino-butyric acid) antagonism
# cardiovascular system = assay: Action on the cardiovascular system; details: in vivo
# frogs = assay: Administration to frogs by injection or by topical application: convulsions and death; assay type: in vivo, frog
# Source text: as §1
# viviparous fish = assay: Release of fry from viviparous fish; assay type: in vivo; details: due to effects on neuromuscular function
# [7] = Convulsant action and lethality in rats, intraperitoneal injection; assay type: in vivo, rat; details: rat, in vivo, ip, read-out: non-convulsant dose
# Protocol: (§2) Rats are also sensitive to the convulsant actions of cunaniol, a convulsant dose being 5 mg/kg. A dosage of 2.24 mg/kg is a non-convulsant dose while 10 mg/kg causes death (intraperitoneal injection).
# Rats = assay: as above; assay type: in vivo, rat
# Protocol: as §2
# [8] = tested on: intact anaesthetised rats; assay: Pressor response in intact anaesthetised rats; assay type: in vivo, rat; details: intravenous injection
# Protocol: (§3) In intact anaesthetised rats, a sustained pressor response is produced by cunaniol administered by intravenous injection in doses of 0.5 mg or greater. In pithed rats the response to cunaniol was abolished, indicating a central action of the polyacetylene.
# [9] = tested on: frog and rat isolated striated muscle preparations; assay: Frog and rat isolated striated muscle preparations, nerve stimulation
# Source text: Experiments have been carried out on frog and rat isolated striated muscle preparations.
# pithed rats = assay: Pressor response in pithed rats; assay type: in vivo, rat; details: indicating a central action
# Protocol: as §3
# [10] = tested on: frog spinal cord preparation; assay: Frog spinal cord preparation
# Source text: as §1
compound,measurement,setting,value
CC#CC#CC#C/C=C/C1OCCCC1OC1C=C[C@H](OC(C)=O)[C@@H](COC(C)=O)O1 (stereo partly shown) [glycoside],liberation of cunaniol on hydrolysis,[1]; hydrolysis of the glycoside link,readily liberated on hydrolysis
"CN(C)C(=O)Oc1cccc([N+](C)(C)C)c1 [neostigmine, reference compound]",reversal of neuromuscular block by neostigmine,"[2]; block by cunaniol, i.e. not curare-like",not reversed
"CN1C(=O)OC(C)(C)C1=O [troxidone, reference compound]",antagonism of cunaniol convulsant action,central nervous system,antagonised
O=C1C[C@@H]2OCC=C3CN4CC[C@]56c7ccccc7N1[C@H]5[C@H]2[C@H]3C[C@H]46 [strychnine],convulsant type in mice,mice,tonic convulsions
same,similarity of convulsant actions to cunaniol,mice,differed
CC#CC#CC#CC=CC1OCCCC1OC(C)=O (stereo not shown) [cunaniol acetate],Kp value,[3],0.54
same,hydrolysis,[1]; with sodium bicarbonate,easily hydrolysed
"CCC1(C)CC(=O)NC(=O)C1 [bemegride, reference compound]",ED50,"[4]; Rattus norvegicus, ip, rats",45.7 mg/kg
CC#CC#CC#C/C=C\C1OCCCC1O (stereo not drawn) [cis-cunaniol],potency relative to trans form,[5],about 1/60
CC#CC#CC#C/C=C/C1OCCCC1O (stereo not shown),solubility in water,[6]; water,low solubility in water
C=C(C)[C@H]1Cc2c(ccc3c2O[C@@H]2COc4cc(OC)c(OC)cc4[C@@H]2C3=O)O1 [rotenone],toxicity to mice,"mice; metabolic toxin, comparison",highly toxic to mice
same,similarity of convulsant actions to cunaniol,mice,qualitatively different from the convulsants
same,reversibility in isolated rabbit heart,isolated rabbit heart; similar experiment with rotenone,did not exhibit the reversibility
"CCC1(c2ccccc2)C(=O)NC(=O)NC1=O [phenobarbitone, reference compound]",antagonism of responses of guppies to cunaniol,guppies; in vivo,readily antagonises all responses
same,antagonism of cunaniol convulsant action,central nervous system,antagonised
CC#CC#CC#CC=CC1OCCCC1O (stereo not shown) [cunaniol],potency among the clonic convulsants,"mice; both routes of administration, compared with leptazol, picrotoxin",most potent of the clonic convulsants
same,speed of onset of effects,mice; compared with the other compounds,usually occurred more rapidly than with the other compounds
same,convulsant type in mice,mice,clonic convulsant
same,"effect on rat heart, larger doses",rat heart; larger doses,complete heart block
same,reversibility of heart block,"rat heart; on washing out, no apparent impairment of function",rapidly reversed on washing out
same,"effect on rat heart, small doses",rat heart; small doses,reduce contractability of the rat heart
same,GABA antagonist activity,GABAergic system,GABA (gamma-amino-butyric acid) antagonist
same,effect on isolated rabbit heart,"isolated rabbit heart; perfusion, 100 μg/ml, preliminary experiments",negative inotropic effect culminating in complete but reversible cardiac arrest in diastole
same,edibility of treated fish,guppies; almost immediately after treatment,edible almost immediately
same,subsequent symptoms after recovery,guppies; guppies removed into fresh water,no subsequent symptoms
same,time to complete recovery,guppies; guppies removed into fresh water after ten minutes at approximately 10^-6 M,approximately twenty
same,time to restless movement,"guppies; guppies, approximately 10^-6 M",two
same,"time to wild swimming, convulsion and coma with the body bent laterally","guppies; guppies, approximately 10^-6 M",ten
same,rapidity relative to picrotoxin,central nervous system; ten times as rapid as picrotoxin,about ten
same,effect on the cardiovascular system,cardiovascular system,transient depressant effect on the heart and a sustained pressor response
same,effect in frogs,frogs; by injection or by topical application,clonic convulsions and death
same,LD50,"frogs; frogs, intraperitoneal injection",12.8 mg/kg
same,release of fry from viviparous fish,viviparous fish,highly effective
same,NOAEL,[7],2.24 mg/kg
same,convulsant dose,Rats,5 mg/kg
same,dose causing death,Rats,10 mg/kg
same,lipophilicity,[6]; due to the polyacetylene chain,lipophilic
same,dose producing a sustained pressor response,[8],≥ 0.5 mg
same,response to nerve stimulation,[9],increased response to nerve stimulation
same,neuromuscular transmission at higher concentrations,[9]; higher concentrations,failure in neuromuscular transmission
same,minimal effective dose,"[4]; Rattus norvegicus, ip, rats, intraperitoneal injection, read-out: dose antagonising pentobarbitone",5 mg/kg
same,ED50,"[4]; Rattus norvegicus, ip, rats",7.4 mg/kg
same,selectivity as analeptic,[4]; compared with bemegride and leptazol,more selective anti-phenobarbitone action
same,analeptic potency compared with bemegride,"[4]; rats, 50% reduction of ""sleeping time""",more potent than bemegride
same,stability to air and light,[1],readily decomposed to a brown material
same,stability to air and light,[1]; listed as trans-cunaniol,unstable to oxygen and light
same,storage stability,"[1]; solid under n-hexane, in the dark, in a refrigerator",could be kept for years
same,pressor response in pithed rats,pithed rats,abolished
same,effects on frog spinal cord preparation,[10],resemble those of nicotine
same,minimal effective concentration,"[2]; Rattus norvegicus, direct action on the muscle, dose dependent, concentrations as low as, read-out: lowest concentration giving marked potentiation",12.5 µg/mL
same,concentration giving complete neuromuscular block,[2]; higher concentrations,100 µg/mL
same,reversal of block by washing,[2]; washing,readily reversed by washing
same,time for removal of potentiation by washing,"[2]; washing, more slowly removed than block",60 min
picrotoxin,similarity of convulsant actions to cunaniol,mice,less closely
C1CCc2nnnn2CC1 [leptazol],similarity of convulsant actions to cunaniol,mice,mimicked closely
